From patent US10604526B2, “Chemokine receptor modulators and uses thereof” (RAPT THERAPEUTICS, INC., priority 2016, dated 2020) come the findings set out here.

SMILES strings stand for the structures.

This assay concerns the target T1, hCCR4 (Homo sapiens, UniProt P51679).
T1 sequence (P51679 1-360): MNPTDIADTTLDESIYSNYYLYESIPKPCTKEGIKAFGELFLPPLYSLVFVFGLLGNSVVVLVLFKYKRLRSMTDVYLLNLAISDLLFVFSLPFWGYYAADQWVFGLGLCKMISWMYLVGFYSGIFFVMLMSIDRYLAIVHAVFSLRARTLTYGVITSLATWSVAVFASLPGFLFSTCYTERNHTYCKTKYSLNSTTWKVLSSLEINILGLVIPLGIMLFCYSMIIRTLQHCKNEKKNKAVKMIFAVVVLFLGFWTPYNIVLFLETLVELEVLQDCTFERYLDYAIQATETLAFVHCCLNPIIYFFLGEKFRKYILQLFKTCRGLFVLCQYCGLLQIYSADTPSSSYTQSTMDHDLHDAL
Briefly: Calcium flux assay. It counts as cell-based. The settings on record: Chem5-hCCR4 cells, CCL22 at EC80 of 1.5 nM, FLIPR Calcium 6 dye; read-out: Potency (IC50). On the procedure:
Calcium Flux Assay. Compounds were evaluated in a calcium flux assay substantially performed as follows. Chem5-hCCR4 cells (EMD Millipore, Hayward, Calif.; HTS009C) were cultured under standard conditions and frozen in aliquots of 10×10^6 cells/mL. The day prior to compound testing, a vial was rapidly thawed and pipetted into 20 mL media (DMEM+10% FBS+1% Pen-Strep+1% L-glutamine). Cells were harvested by centrifugation and re-suspended in fresh culture medium. 25 μL of cell suspension was seeded into 384-well plates (Corning, Tewksbury, Mass.; CellBind with black wall/clear bottom). The plates were centrifuged at 300 g for 10 seconds and incubated overnight at 37° C. and 5% CO2. The day of compound testing, media was removed from the plates and 25 μL serum free media was added to each well. Plates were returned to the incubator for 2 h. 25 μL assay buffer (Hank's balanced salt solution+20 mM HEPES pH 7.4) containing FLIPR Calcium 6 dye (Molecular Devices, Sunnyvale, Calif.; # R8191) and probenecid (2.5 mM) was added to each well and incubated at 37° C. and 5% CO2 for 2 h. Compounds in DMSO were added to the plates using an HP D300e digital dispenser, and all wells were normalized to contain 0.25 μL (0.5%) DMSO. Plates were incubated for 1 hour at 37° C. and 5% CO2. CCL22 (Peprotech; Rockyhill, N.J.) was diluted in assay buffer containing 0.1% BSA to 7.5 nM (corresponding to 5×EC80 of 1.5 nM).
Assay plates and working solution of CCL22 were transferred to the FlexStation plate reader (Molecular Devices) at 37° C. for 5 min of equilibration. Fluorescence recordings at 485 excitation/525 emission were performed at 2.5 second intervals. At t=16 seconds, 12.5 μL of CCL22 solution was added to each well and reads continued for 30 seconds at 2.5 second intervals. The minimum fluorescence (Fmin) was calculated by averaging the reads prior to ligand addition and the change in fluorescence (ΔF) was calculated by subtracting the Fmin from the average of the reads following ligand addition. The response ΔF/Fmin was plotted as a function of the compound concentration and the IC50 values were determined by non-linear regression analysis using a 4-parameter fit in either PRISM software (GraphPad; La Jolla, Calif.) or Dotmatics Browser.
(In general: Calcium assays in cells follow changes in intracellular calcium, usually with a dye or a luminescent sensor.)
In general, IC50 refers to the point on the concentration scale where inhibition reaches its midpoint. As for `Cc1nn([C@H](C)c2ccc(Cl)cc2Cl)c2nc(N3CC(C4CCCN(CCS(N)(=O)=O)C4)C3)cnc12` (mixture of isomers) [Example 4, 2-((R)-3-(1-(1-((R)-1-(2,4-dichlorophenyl)ethyl)-3-methyl-1H-pyrazolo[3,4-b]pyrazin-6-yl)azetidin-3-yl)piperidin-1-yl)ethane-1-sulfonamide and 2-((S)-3-(1-(1-((R)-1-(2,4-dichlorophenyl)ethyl)-3-methyl-1H-pyrazolo[3,4-b]pyrazin-6-yl)azetidin-3-yl)piperidin-1-yl)ethane-1-sulfonamide], the IC50 fell in the range of 100 to 500 nM.

As for `Cc1nn([C@H](C)c2ccc(Cl)cc2Cl)c2nc(N3CC(C4CCCN(CCC(=O)O)C4)C3)cnc12` (mixture of isomers) [Example 7, 3-((S)-3-(1-(1-((R)-1-(2,4-Dichlorophenyl)ethyl)-3-methyl-1H-pyrazolo[3,4-b]pyrazin-6-yl)azetidin-3-yl)piperidin-1-yl)propanoic acid and 3-((R)-3-(1-(1-((R)-1-(2,4-dichlorophenyl)ethyl)-3-methyl-1H-pyrazolo[3,4-b]pyrazin-6-yl)azetidin-3-yl)piperidin-1-yl)propanoic acid], the IC50 is 100 to 500 nM.

`Cc1nn([C@H](C)c2ccc(Cl)cc2Cl)c2nc(N3CC(C4CCCN(C5CC(C(=O)O)C5)C4)C3)cnc12` (mixture of isomers) [Example 16]: the IC50 was more than 500 nM.

Turning to `C[C@H](c1ccc(Cl)cc1Cl)n1nc(C#N)c2ncc(N3CC(C4CCCN(CCS(C)(=O)=O)C4)C3)nc21` (mixture of isomers) [Example 23, 1-((R)-1-(2,4-Dichlorophenyl)ethyl)-6-(3-((S)-1-(2-(methylsulfonyl)ethyl)piperidin-3-yl)azetidin-1-yl)-1H-pyrazolo[3,4-b]pyrazine-3-carbonitrile and 1-((R)-1-(2,4-dichlorophenyl)ethyl)-6-(3-((R)-1-(2-(methylsulfonyl)ethyl)piperidin-3-yl)azetidin-1-yl)-1H-pyrazolo[3,4-b]pyrazine-3-carbonitrile], the IC50 was less than 100 nM.

For the compound `C[C@H](c1ccc(Cl)cc1Cl)n1nc(C#N)c2ncc(N3CC(C4CCCN(CCC(N)=O)C4)C3)nc21` (mixture of isomers) [Example 24, 3-((S)-3-(1-(3-Cyano-1-((R)-1-(2,4-dichlorophenyl)ethyl)-1H-pyrazolo[3,4-b]pyrazin-6-yl)azetidin-3-yl)piperidin-1-yl)propanamide and 3-((R)-3-(1-(3-cyano-1-((R)-1-(2,4-dichlorophenyl)ethyl)-1H-pyrazolo[3,4-b]pyrazin-6-yl)azetidin-3-yl)piperidin-1-yl)propanamide], the IC50 was less than 100 nM.

`CC(O)CN1CCCC(C2CN(c3cnc4c(C#N)nn([C@H](C)c5ccc(Cl)cc5Cl)c4n3)C2)C1` (mixture of isomers) [Example 27]: the IC50 is less than 100 nM.

Regarding `Cc1nn([C@H](C)c2ccc(Cl)cc2Cl)c2nc(N3CC(C4CCCN(CCO)C4)C3)ncc12` (mixture of isomers) [Example 37, 2-((S)-3-(1-(1-((R)-1-(2,4-Dichlorophenyl)ethyl)-3-methyl-1H-pyrazolo[3,4-d]pyrimidin-6-yl)azetidin-3-yl)piperidin-1-yl)ethan-1-ol and 2-((R)-3-(1-(1-((R)-1-(2,4-dichlorophenyl)ethyl)-3-methyl-1H-pyrazolo[3,4-d]pyrimidin-6-yl)azetidin-3-yl)piperidin-1-yl)ethan-1-ol], the IC50 was less than 100 nM.

Take `Cc1nn([C@H](C)c2ccc(Cl)cc2Cl)c2nc(N3CC(C4CCCN(CCO)C4)C3)cnc12` (mixture of isomers) [Example 40, 2-((S)-3-(1-(1-((R)-1-(2,4-Dichlorophenyl)ethyl)-3-methyl-1H-pyrazolo[3,4-b]pyrazin-6-yl)azetidin-3-yl)piperidin-1-yl)ethan-1-ol and 2-((R)-3-(1-(1-((R)-1-(2,4-dichlorophenyl)ethyl)-3-methyl-1H-pyrazolo[3,4-b]pyrazin-6-yl)azetidin-3-yl)piperidin-1-yl)ethan-1-ol]: the IC50 was less than 100 nM.

As for `C[C@H](c1ccc(Cl)cc1Cl)n1nc(C(F)(F)F)c2ncc(N3CC(C4CCCN(CCO)C4)C3)nc21` (mixture of isomers) [Example 42, 2-((R)-3-(1-(1-((R)-1-(2,4-Dichlorophenyl)ethyl)-3-(trifluoromethyl)-1H-pyrazolo[3,4-b]pyrazin-6-yl)azetidin-3-yl)piperidin-1-yl)ethan-1-ol and 2-((S)-3-(1-(1-((R)-1-(2,4-dichlorophenyl)ethyl)-3-(trifluoromethyl)-1H-pyrazolo[3,4-b]pyrazin-6-yl)azetidin-3-yl)piperidin-1-yl)ethan-1-ol], the IC50 fell in the range of 100 to 500 nM.

`CC(=O)NCCN1CCCC(C2CN(c3cnc4c(C(F)(F)F)nn([C@H](C)c5ccc(Cl)cc5Cl)c4n3)C2)C1` (mixture of isomers) [Example 45, N-(2-((R)-3-(1-(1-((R)-1-(2,4-Dichlorophenyl)ethyl)-3-(trifluoromethyl)-1H-pyrazolo[3,4-b]pyrazin-6-yl)azetidin-3-yl)piperidin-1-yl)ethyl)acetamide and N-(2-((S)-3-(1-(1-((R)-1-(2,4-dichlorophenyl)ethyl)-3-(trifluoromethyl)-1H-pyrazolo[3,4-b]pyrazin-6-yl)azetidin-3-yl)piperidin-1-yl)ethyl)acetamide]: the IC50 was 100 to 500 nM.

`C[C@H](c1ccc(Cl)cc1Cl)n1nc(C(F)(F)F)c2ncc(N3CC(C4CCCN(CCNS(C)(=O)=O)C4)C3)nc21` (mixture of isomers) [Example 46, N-(2-((R)-3-(1-(1-((R)-1-(2,4-Dichlorophenyl)ethyl)-3-(trifluoromethyl)-1H-pyrazolo[3,4-b]pyrazin-6-yl)azetidin-3-yl)piperidin-1-yl)ethyl)methanesulfonamide and N-(2-((S)-3-(1-(1-((R)-1-(2,4-dichlorophenyl)ethyl)-3-(trifluoromethyl)-1H-pyrazolo[3,4-b]pyrazin-6-yl)azetidin-3-yl)piperidin-1-yl)ethyl)methanesulfonamide]: the half-maximal inhibitory concentration (IC50) was in the range of 100 to 500 nM.

With `CC(C)S(=O)(=O)NCCN1CCCC(C2CN(c3cnc4c(C(F)(F)F)nn([C@H](C)c5ccc(Cl)cc5Cl)c4n3)C2)C1` (mixture of isomers) [Example 47, N-(2-((R)-3-(1-(1-((R)-1-(2,4-Dichlorophenyl)ethyl)-3-(trifluoromethyl)-1H-pyrazolo[3,4-b]pyrazin-6-yl)azetidin-3-yl)piperidin-1-yl)ethyl)propane-2-sulfonamide and N-(2-((S)-3-(1-(1-((R)-1-(2,4-dichlorophenyl)ethyl)-3-(trifluoromethyl)-1H-pyrazolo[3,4-b]pyrazin-6-yl)azetidin-3-yl)piperidin-1-yl)ethyl)propane-2-sulfonamide], the IC50 was less than 100 nM.

Take `CC(C)C(=O)NCCN1CCCC(C2CN(c3cnc4c(C(F)(F)F)nn([C@H](C)c5ccc(Cl)cc5Cl)c4n3)C2)C1` (mixture of isomers) [Example 48, N-(2-((R)-3-(1-(1-((R)-1-(2,4-Dichlorophenyl)ethyl)-3-(trifluoromethyl)-1H-pyrazolo[3,4-b]pyrazin-6-yl)azetidin-3-yl)piperidin-1-yl)ethyl)isobutyramide and N-(2-((S)-3-(1-(1-((R)-1-(2,4-dichlorophenyl)ethyl)-3-(trifluoromethyl)-1H-pyrazolo[3,4-b]pyrazin-6-yl)azetidin-3-yl)piperidin-1-yl)ethyl)isobutyramide]: the IC50 was less than 100 nM.

Consider `COC(=O)NCCN1CCCC(C2CN(c3cnc4c(C(F)(F)F)nn([C@H](C)c5ccc(Cl)cc5Cl)c4n3)C2)C1` (mixture of isomers) [Example 49, Methyl (2-((R)-3-(1-(1-((R)-1-(2,4-dichlorophenyl)ethyl)-3-(trifluoromethyl)-1H-pyrazolo[3,4-b]pyrazin-6-yl)azetidin-3-yl)piperidin-1-yl)ethyl)carbamate and methyl (2-((S)-3-(1-(1-((R)-1-(2,4-dichlorophenyl)ethyl)-3-(trifluoromethyl)-1H-pyrazolo[3,4-b]pyrazin-6-yl)azetidin-3-yl)piperidin-1-yl)ethyl)carbamate], for which the IC50 was less than 100 nM.
